Reference: ChEMBL document CHEMBL5678818, “Discovery of potent SOS1 inhibitors that block RAS activation via disruption of the RAS-SOS1 interaction” (Proc Natl Acad Sci U S A, 2019)

Tests used:
[1] = system: Epidermal growth factor receptor (Homo sapiens), P00533 [T790M]; assay: Inhibition of EGFR T790M mutant (unknown origin) assessed as residual activity at 100 nM by KINOMEscan analysis relative to control
[2] = target: Serine/threonine-protein kinase MRCK alpha (Homo sapiens) (UniProt Q5VT25); assay: Inhibition of MRCKA (unknown origin) assessed as residual activity at 100 nM by KINOMEscan analysis relative to control
[3] = target: T1, Ephrin type-A receptor 3 (Homo sapiens) (UniProt P29320); assay: Inhibition of EPHA3 (unknown origin) assessed as residual activity at 100 nM by KINOMEscan analysis relative to control
T1 sequence (whole entry): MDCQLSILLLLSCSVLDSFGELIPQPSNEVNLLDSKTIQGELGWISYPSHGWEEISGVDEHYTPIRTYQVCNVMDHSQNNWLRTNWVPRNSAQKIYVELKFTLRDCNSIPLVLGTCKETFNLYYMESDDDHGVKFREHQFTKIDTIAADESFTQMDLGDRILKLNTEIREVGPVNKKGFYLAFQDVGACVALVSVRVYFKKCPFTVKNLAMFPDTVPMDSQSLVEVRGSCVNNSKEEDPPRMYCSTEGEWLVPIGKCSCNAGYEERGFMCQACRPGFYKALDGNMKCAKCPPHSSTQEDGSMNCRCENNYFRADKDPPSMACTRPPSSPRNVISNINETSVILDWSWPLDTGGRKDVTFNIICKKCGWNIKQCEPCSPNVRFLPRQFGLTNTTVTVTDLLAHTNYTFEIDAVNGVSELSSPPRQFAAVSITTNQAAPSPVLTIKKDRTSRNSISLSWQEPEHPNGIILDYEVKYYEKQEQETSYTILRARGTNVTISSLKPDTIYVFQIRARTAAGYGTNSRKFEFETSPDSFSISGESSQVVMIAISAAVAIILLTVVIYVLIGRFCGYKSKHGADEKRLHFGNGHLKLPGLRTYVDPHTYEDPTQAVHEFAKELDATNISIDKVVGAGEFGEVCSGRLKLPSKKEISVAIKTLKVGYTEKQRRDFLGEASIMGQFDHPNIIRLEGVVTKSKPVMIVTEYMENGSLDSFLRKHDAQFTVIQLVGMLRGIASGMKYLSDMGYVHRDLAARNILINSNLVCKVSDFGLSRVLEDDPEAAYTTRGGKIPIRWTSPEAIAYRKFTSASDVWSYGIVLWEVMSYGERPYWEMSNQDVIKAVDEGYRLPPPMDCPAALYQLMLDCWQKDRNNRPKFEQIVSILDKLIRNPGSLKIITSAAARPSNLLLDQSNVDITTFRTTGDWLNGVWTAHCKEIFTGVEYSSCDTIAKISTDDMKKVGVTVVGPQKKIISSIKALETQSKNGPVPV

[4] = target: T2, Serine/threonine-protein kinase ULK3 (Homo sapiens) (UniProt Q6PHR2); assay: Inhibition of ULK3 (unknown origin) assessed as residual activity at 100 nM by KINOMEscan analysis relative to control
T2 sequence (whole entry): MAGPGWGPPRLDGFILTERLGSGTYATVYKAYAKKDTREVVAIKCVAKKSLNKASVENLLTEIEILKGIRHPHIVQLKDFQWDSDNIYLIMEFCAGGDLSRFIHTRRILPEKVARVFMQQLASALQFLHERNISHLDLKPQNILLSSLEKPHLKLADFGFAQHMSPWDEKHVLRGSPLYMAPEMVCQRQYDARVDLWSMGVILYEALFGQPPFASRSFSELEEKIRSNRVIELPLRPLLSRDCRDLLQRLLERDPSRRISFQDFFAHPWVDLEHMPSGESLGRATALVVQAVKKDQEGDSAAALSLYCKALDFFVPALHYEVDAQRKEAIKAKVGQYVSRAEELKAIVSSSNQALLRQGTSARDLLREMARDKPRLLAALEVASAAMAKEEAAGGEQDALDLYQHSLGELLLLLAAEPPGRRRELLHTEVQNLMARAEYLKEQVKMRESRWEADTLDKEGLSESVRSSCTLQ

[5] = target: 5'-AMP-activated protein kinase catalytic subunit alpha-2 (Homo sapiens) (UniProt P54646); assay: Inhibition of AMPK-alpha2 (unknown origin) assessed as residual activity at 100 nM by KINOMEscan analysis relative to control
[6] = target: STE20-like serine/threonine-protein kinase (Homo sapiens) (UniProt Q9H2G2); assay: Inhibition of SLK (unknown origin) assessed as residual activity at 100 nM by KINOMEscan analysis relative to control
[7] = target: Protein kinase C theta type (Homo sapiens) (UniProt Q04759); assay: Inhibition of PRKCQ (unknown origin) assessed as residual activity at 100 nM by KINOMEscan analysis relative to control
[8] = target: Mitogen-activated protein kinase kinase kinase 12 (Homo sapiens) (UniProt Q12852); assay: Inhibition of DLK (unknown origin) assessed as residual activity at 100 nM by KINOMEscan analysis relative to control
[9] = target: G protein-coupled receptor kinase 4 (Homo sapiens) (UniProt P32298); assay: Inhibition of GRK4 (unknown origin) assessed as residual activity at 100 nM by KINOMEscan analysis relative to control
[10] = target: T3, Dual specificity mitogen-activated protein kinase kinase 6 (Homo sapiens) (UniProt P52564); assay: Inhibition of MEK6 (unknown origin) assessed as residual activity at 100 nM by KINOMEscan analysis relative to control
T3 sequence (whole entry): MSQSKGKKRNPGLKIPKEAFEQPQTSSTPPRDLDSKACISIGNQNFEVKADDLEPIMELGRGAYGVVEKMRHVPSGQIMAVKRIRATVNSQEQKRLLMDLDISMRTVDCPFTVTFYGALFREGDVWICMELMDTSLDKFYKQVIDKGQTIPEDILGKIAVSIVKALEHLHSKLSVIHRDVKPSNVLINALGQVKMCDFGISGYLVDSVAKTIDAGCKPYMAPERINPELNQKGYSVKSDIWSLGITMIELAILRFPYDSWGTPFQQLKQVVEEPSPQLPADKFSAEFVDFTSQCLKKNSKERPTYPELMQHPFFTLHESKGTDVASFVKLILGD

[11] = target: Mitogen-activated protein kinase 11 (Homo sapiens) (UniProt Q15759); assay: Inhibition of p38-beta (unknown origin) assessed as residual activity at 100 nM by KINOMEscan analysis relative to control
[12] = target: Ephrin type-A receptor 4 (Homo sapiens) (UniProt P54764); assay: Inhibition of EPHA4 (unknown origin) assessed as residual activity at 100 nM by KINOMEscan analysis relative to control
[13] = species: Homo sapiens; assay: Inhibition of N-terminal GST-tagged recombinant human SOS1 L901K mutant (564 to 1049 residues) expressed in Escherichia coli assessed as reduction in KRAS G12C mutant activation at 10 uM by HTRF analysis relative to control
[14] = target: Cyclin-dependent kinase-like 1 (Homo sapiens) (UniProt Q00532); assay: Inhibition of CDKL1 (unknown origin) assessed as residual activity at 100 nM by KINOMEscan analysis relative to control
Chain of Cyclin-dependent kinase-like 1 (Homo sapiens) (Q00532 whole entry): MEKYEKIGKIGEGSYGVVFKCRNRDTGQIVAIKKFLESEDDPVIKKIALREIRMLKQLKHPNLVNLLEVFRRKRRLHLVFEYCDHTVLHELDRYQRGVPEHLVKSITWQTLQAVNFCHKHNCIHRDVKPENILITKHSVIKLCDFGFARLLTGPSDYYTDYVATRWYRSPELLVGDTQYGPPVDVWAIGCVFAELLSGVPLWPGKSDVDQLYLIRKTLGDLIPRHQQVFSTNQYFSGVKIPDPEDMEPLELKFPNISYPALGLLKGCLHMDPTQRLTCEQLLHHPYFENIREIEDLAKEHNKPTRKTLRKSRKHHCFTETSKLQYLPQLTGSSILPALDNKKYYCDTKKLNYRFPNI

Chain of Ephrin type-A receptor 4 (Homo sapiens) (P54764 whole entry, the tested form may be a part): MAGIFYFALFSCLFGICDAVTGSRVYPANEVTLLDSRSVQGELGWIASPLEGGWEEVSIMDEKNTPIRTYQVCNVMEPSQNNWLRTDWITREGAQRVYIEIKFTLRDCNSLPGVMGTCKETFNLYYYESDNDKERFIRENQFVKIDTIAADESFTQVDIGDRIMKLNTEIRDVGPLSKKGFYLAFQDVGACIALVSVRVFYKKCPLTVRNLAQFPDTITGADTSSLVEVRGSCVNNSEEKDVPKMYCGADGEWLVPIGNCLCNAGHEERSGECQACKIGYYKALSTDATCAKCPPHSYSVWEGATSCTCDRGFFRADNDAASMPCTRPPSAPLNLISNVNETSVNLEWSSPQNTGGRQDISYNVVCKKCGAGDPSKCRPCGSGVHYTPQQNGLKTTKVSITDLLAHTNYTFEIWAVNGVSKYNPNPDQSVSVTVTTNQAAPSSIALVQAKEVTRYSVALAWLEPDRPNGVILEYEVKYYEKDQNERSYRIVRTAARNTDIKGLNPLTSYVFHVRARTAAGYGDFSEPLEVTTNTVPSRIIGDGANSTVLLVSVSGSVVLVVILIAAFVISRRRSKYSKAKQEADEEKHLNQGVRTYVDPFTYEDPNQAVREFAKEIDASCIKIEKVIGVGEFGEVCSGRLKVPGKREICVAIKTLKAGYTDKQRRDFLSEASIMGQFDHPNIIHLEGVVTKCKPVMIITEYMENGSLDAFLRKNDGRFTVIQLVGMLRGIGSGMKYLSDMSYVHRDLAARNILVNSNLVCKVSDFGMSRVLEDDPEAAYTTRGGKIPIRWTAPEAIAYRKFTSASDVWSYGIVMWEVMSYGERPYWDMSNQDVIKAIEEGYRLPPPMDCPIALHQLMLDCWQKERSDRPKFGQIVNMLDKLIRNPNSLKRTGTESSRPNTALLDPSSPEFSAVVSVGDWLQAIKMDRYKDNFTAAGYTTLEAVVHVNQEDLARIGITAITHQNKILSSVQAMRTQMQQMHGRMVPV
Chain of Mitogen-activated protein kinase 11 (Homo sapiens) (Q15759 whole entry): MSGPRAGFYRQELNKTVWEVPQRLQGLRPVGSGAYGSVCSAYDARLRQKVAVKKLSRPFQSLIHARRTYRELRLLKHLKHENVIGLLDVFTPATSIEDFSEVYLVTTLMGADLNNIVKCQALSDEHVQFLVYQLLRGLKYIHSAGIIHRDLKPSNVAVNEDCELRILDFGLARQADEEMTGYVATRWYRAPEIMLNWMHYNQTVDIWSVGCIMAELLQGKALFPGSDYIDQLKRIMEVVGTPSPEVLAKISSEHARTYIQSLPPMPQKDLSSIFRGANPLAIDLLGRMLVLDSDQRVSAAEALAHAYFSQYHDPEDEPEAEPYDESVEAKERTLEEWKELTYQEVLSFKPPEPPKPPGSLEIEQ
Chain of Serine/threonine-protein kinase MRCK alpha (Homo sapiens) (Q5VT25 whole entry): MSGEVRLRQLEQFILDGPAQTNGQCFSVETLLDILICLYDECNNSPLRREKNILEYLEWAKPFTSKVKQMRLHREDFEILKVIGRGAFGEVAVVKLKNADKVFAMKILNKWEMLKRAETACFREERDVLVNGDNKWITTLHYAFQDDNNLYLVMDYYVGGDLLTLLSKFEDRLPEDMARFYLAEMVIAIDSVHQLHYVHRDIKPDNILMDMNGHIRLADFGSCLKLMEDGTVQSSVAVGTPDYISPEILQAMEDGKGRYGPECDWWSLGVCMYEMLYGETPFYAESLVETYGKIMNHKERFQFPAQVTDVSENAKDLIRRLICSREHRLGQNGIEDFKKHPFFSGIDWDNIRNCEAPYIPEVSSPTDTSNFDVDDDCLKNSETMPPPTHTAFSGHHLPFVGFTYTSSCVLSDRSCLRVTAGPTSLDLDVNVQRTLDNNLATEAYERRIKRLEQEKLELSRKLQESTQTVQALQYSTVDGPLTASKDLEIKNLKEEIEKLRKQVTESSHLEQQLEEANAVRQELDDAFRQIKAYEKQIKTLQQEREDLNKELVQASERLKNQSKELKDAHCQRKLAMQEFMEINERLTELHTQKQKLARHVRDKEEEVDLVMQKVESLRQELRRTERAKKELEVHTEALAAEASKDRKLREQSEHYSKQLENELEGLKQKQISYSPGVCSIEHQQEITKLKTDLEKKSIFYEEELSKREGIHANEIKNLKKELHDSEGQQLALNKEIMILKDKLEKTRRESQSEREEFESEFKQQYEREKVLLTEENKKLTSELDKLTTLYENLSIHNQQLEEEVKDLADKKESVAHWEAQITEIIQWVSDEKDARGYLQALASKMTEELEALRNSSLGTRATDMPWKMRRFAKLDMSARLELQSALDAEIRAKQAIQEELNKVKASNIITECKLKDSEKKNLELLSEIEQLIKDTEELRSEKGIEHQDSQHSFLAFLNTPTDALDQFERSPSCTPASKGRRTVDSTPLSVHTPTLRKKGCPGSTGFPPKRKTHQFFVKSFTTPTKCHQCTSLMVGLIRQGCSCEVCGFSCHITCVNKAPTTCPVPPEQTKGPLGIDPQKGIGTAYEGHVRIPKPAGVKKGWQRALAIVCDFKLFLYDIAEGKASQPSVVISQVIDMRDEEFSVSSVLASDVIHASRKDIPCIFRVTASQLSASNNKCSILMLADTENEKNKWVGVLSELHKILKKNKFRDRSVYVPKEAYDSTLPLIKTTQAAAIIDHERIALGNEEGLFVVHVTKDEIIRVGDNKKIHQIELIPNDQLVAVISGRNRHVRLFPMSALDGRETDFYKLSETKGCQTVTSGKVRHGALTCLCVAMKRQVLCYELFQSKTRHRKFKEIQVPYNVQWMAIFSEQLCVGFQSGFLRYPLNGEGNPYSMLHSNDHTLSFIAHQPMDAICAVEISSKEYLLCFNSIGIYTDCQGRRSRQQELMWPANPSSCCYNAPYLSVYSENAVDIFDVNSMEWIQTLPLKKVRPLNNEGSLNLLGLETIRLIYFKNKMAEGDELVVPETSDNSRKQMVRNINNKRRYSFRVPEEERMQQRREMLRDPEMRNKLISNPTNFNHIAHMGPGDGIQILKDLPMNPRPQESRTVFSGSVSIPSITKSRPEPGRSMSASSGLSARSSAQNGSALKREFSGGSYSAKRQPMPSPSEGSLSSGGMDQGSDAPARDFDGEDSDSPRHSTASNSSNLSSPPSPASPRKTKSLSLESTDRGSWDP
Chain of Protein kinase C theta type (Homo sapiens) (Q04759 whole entry, looked up): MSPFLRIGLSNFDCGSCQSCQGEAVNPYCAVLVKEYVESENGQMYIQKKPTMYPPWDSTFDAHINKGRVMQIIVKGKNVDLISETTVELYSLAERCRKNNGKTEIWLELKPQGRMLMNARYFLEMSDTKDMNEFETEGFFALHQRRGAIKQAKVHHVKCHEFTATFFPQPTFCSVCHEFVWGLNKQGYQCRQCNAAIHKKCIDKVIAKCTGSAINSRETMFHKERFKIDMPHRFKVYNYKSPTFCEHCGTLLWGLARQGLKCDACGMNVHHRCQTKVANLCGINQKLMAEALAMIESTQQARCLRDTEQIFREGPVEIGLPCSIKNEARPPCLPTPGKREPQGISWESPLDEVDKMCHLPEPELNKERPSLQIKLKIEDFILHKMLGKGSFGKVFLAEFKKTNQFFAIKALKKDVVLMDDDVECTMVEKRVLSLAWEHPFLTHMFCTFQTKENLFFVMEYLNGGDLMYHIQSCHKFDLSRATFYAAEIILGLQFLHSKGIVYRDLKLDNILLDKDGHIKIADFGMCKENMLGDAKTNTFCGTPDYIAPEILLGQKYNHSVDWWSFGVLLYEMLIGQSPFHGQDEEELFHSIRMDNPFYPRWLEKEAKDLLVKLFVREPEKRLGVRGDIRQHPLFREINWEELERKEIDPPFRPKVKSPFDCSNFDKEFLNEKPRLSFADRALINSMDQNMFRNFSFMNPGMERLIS
Chain of 5'-AMP-activated protein kinase catalytic subunit alpha-2 (Homo sapiens) (P54646 whole entry, looked up): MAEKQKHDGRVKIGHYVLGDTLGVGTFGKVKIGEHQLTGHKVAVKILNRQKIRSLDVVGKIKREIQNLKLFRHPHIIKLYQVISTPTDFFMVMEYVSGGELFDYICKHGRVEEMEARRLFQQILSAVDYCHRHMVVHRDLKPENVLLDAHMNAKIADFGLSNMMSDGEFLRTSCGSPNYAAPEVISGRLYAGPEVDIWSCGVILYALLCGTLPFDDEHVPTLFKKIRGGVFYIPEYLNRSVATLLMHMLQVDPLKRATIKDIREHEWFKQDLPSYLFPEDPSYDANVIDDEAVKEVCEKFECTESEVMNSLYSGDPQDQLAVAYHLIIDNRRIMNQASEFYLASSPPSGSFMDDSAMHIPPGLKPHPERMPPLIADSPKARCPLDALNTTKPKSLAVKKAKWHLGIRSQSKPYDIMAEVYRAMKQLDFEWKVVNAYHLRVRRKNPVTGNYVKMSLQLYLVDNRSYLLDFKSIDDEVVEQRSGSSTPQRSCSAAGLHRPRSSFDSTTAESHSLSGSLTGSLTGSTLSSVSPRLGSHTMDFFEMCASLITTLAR

In the case of COc1cc2ncnc(N[C@H](C)c3cccc4ccccc34)c2cc1OC, the Activity [1] is reported as 96%, the Activity [2] is reported as 14% and the Activity [3] is reported as 81%. For the same compound, the Activity [4] was 89%, the Activity [5] was 52% and the Activity [6] was 100%. It also gave an Activity [7] of 100%, an Activity [8] of 89% and an Activity [9] of 62%. It also gave an Activity [10] of 98%, an Activity [11] of 81% and an Activity [12] of 86%. It also gave an inhibition [13] of 38% and an Activity [14] of 70%.
